Values quoted from earlier work as cited in patent publication US7915306B2, “Macrocyclic compounds useful as pharmaceuticals” (Eisai Co., Ltd., priority 2002, dated 2011).
Where two headings read alike, the source gives them in different places.

Tests used:
[1] = system: Map/Erk kinase (MEK)
[2] = mouse plasma
[3] = human plasma

SMILES: COc1cc(O)c2c(c1)/C=C/C[C@H](O)[C@H](O)C(=O)/C=C\C[C@H](C)OC2=O [F152]
- inhibition of Map/Erk kinase (MEK) [1]: inhibit
- biological stability (enone isomerization) [2]: susceptible to enone isomerization
- biological stability (enone isomerization) [3]: susceptible to enone isomerization
